Experimental data from patent US11053204B2, “Pyrimidinyloxy benzene derivatives as herbicides” (FMC Corporation, priority 2015, dated 2021).

Columns and labels:
Type in all cases: in vivo
[1] = test system: galium (catchweed bedstraw, Galium aparine); assay: Test C preemergence, plant response rating
[2] = test system: johnsongrass (Sorghum halepense); assay: Test C preemergence, plant response rating
[3] = test system: barnyardgrass (Echinochloa crus-galli); assay: Test C preemergence, plant response rating; details: Preemergence
[4] = test system: pigweed, palmer (palmer pigweed, Amaranthus palmeri); assay: Test C preemergence, plant response rating
kochia (Kochia scoparia) = assay: Test C preemergence, plant response rating
[5] = test system: nightshade (eastern black nightshade, Solanum ptycanthum); assay: Test C preemergence, plant response rating
[6] = test system: windgrass (Apera spica-venti); assay: Test C preemergence, plant response rating
[7] = test system: Canada thistle (Cirsium arvense); assay: Test C postemergence, plant response rating; details: for Canada Thistle plant response rating: scale 0 to 100 (0 no effect, 100 complete control)
How it was run: (§1)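 Preemergence: seeds sown in loam–sand blend or silt loam and sprayed with test chemicals in a non-phytotoxic surfactant-containing solvent. Postemergence: potted plants at 2–18 cm (1–4-leaf stage) sprayed with the same formulation. After 13–15 d in greenhouse, visual rating versus controls on 0 (no effect) to 100 (complete control) scale.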

[8] = test system: buckwheat, wild (wild buckwheat, Polygonum convolvulus); assay: Test C postemergence, plant response rating; details: for Buckwheat, Wild plant response rating: scale 0 to 100 (0 no effect, 100 complete control)
How it was run: as §1

[9] = test system: field poppy (Papaver rhoeas); assay: Test C postemergence, plant response rating; details: for Field Poppy plant response rating: scale 0 to 100 (0 no effect, 100 complete control)
How it was run: as §1

[10] = test system: field violet (Viola arvensis); assay: Test C postemergence, plant response rating; details: for Field Violet plant response rating: scale 0 to 100 (0 no effect, 100 complete control)
How it was run: as §1

[11] = test system: geranium, cutleaf (cutleaf geranium, Geranium dissectum); assay: Test C postemergence, plant response rating; details: for Geranium, Cutleaf plant response rating: scale 0 to 100 (0 no effect, 100 complete control)
How it was run: as §1

[12] = test system: johnsongrass (Sorghum halepense); assay: Test C postemergence, plant response rating; details: for Johnsongrass plant response rating: scale 0 to 100 (0 no effect, 100 complete control)
How it was run: as §1

[13] = test system: nightshade (eastern black nightshade, Solanum ptycanthum); assay: Test C postemergence, plant response rating; details: for Nightshade plant response rating: scale 0 to 100 (0 no effect, 100 complete control)
How it was run: as §1

[14] = test system: pigweed, palmer (palmer pigweed, Amaranthus palmeri); assay: Test C postemergence, plant response rating; details: for Pigweed, Palmer plant response rating: scale 0 to 100 (0 no effect, 100 complete control)
How it was run: as §1

[15] = test system: speedwell (bird's-eye speedwell, Veronica persica); assay: Test C postemergence, plant response rating; details: for Speedwell plant response rating: scale 0 to 100 (0 no effect, 100 complete control)
How it was run: as §1

[16] = test system: surinam grass (Brachiaria decumbens); assay: Test C postemergence, plant response rating
How it was run: as §1

[17] = test system: wild mustard (Sinapis arvensis); assay: Test C postemergence, plant response rating; details: for Mustard, Wild plant response rating: scale 0 to 100 (0 no effect, 100 complete control)
How it was run: as §1

[18] = test system: wild poinsettia (Euphorbia heterophylla); assay: Test C postemergence, plant response rating; details: for Poinsettia, Wild plant response rating: scale 0 to 100 (0 no effect, 100 complete control)
How it was run: as §1

[19] = test system: windgrass (Apera spica-venti); assay: Test C postemergence, plant response rating
How it was run: as §1

[20] = 125 g ai/ha, scale 0 to 100 (0 no effect, 100 complete control)

`O=C(CCCCC(F)(F)F)c1c(Br)cccc1Oc1ncc(Cl)cn1` [Compound 82] was tested, and the “Plant response rating, Galium” value ([1]; 31 g ai/ha, scale 0 to 100) was 0, the “Plant response rating, Galium” value ([1]; 62 g ai/ha, scale 0 to 100) was 0 and the “Plant response rating, Galium” value ([1]; 125 g ai/ha, scale of 0 to 100) was 80. The “Plant response rating, Johnsongrass” value ([2]; 31 g ai/ha, scale 0 to 100) was 5, the “Plant response rating, Johnsongrass” value ([2]; 62 g ai/ha, scale 0 to 100) was 40 and the “Plant response rating, Johnsongrass” value ([2]; 125 g ai/ha, scale of 0 to 100) was 85. The “Plant response rating, Barnyardgrass” value ([3]; 125 g ai/ha, scale of 0 to 100) was 90, the “Plant response rating, Barnyardgrass” value ([3]; 16 g ai/ha, scale 0 to 100) was 5 and the “Plant response rating, Barnyardgrass” value ([3]; 31 g ai/ha, scale 0 to 100) was 5. For the same compound, the “Plant response rating, Barnyardgrass” value ([3]; 62 g ai/ha, scale 0 to 100) was 20, the “Plant response rating, Pigweed, Palmer” value ([4]; 31 g ai/ha, scale 0 to 100) was 85 and the “Plant response rating, Pigweed, Palmer” value ([4]; 62 g ai/ha, scale 0 to 100) was 100. For the same compound, the “Plant response rating, Pigweed, Palmer” value ([4]; 125 g ai/ha, scale of 0 to 100) was 100, the “Plant response rating, Kochia” value (kochia (Kochia scoparia); 31 g ai/ha, scale 0 to 100) was 50 and the “Plant response rating, Kochia” value (kochia (Kochia scoparia); 62 g ai/ha, scale 0 to 100) was 90. For the same compound, the “Plant response rating, Kochia” value (kochia (Kochia scoparia); 125 g ai/ha, scale of 0 to 100) was 95, the “Plant response rating, Nightshade” value ([5]; 31 g ai/ha, scale 0 to 100) was 20 and the “Plant response rating, Nightshade” value ([5]; 62 g ai/ha, scale 0 to 100) was 40. The “Plant response rating, Nightshade” value ([5]; 125 g ai/ha, scale of 0 to 100) was 85, the “Plant response rating, Windgrass” value ([6]; 31 g ai/ha, scale 0 to 100) was 30 and the “Plant response rating, Windgrass” value ([6]; 62 g ai/ha, scale 0 to 100) was 80. For the same compound, the “Plant response rating, Windgrass” value ([6]; 125 g ai/ha, scale of 0 to 100) was 90, the “Plant response rating, Canada Thistle” value ([7]; 16 g ai/ha, scale of 0 to 100) was 85 and the “Plant response rating, Canada Thistle” value ([7]; 31 g ai/ha, scale 0 to 100) was 85. The “Canada Thistle plant response rating” value ([7]; 62 g ai/ha) was 85, the “Canada Thistle plant response rating” value ([7]; 125 g ai/ha) was 98 and the “Plant response rating, Buckwheat, Wild” value ([8]; 16 g ai/ha, scale of 0 to 100) was 80. For the same compound, the “Plant response rating, Buckwheat, Wild” value ([8]; 31 g ai/ha, scale 0 to 100) was 70, the “Buckwheat, Wild plant response rating” value ([8]; 62 g ai/ha) was 100 and the “Buckwheat, Wild plant response rating” value ([8]; 125 g ai/ha) was 100. For the same compound, the “Plant response rating, Field Poppy” value ([9]; 16 g ai/ha, scale of 0 to 100) was 50, the “Plant response rating, Field Poppy” value ([9]; 31 g ai/ha, scale 0 to 100) was 85 and the “Field Poppy plant response rating” value ([9]; 62 g ai/ha) was 100. For the same compound, the “Field Poppy plant response rating” value ([9]; 125 g ai/ha) was 100, the “Plant response rating, Field Violet” value ([10]; 16 g ai/ha, scale of 0 to 100) was 60 and the “Plant response rating, Field Violet” value ([10]; 31 g ai/ha, scale 0 to 100) was 70. The “Field Violet plant response rating” value ([10]; 62 g ai/ha) was 90, the “Field Violet plant response rating” value ([10]; 125 g ai/ha) was 90 and the “Plant response rating, Geranium, Cutleaf” value ([11]; 16 g ai/ha, scale of 0 to 100) was 30. For the same compound, the “Plant response rating, Geranium, Cutleaf” value ([11]; 31 g ai/ha, scale 0 to 100) was 30, the “Geranium, Cutleaf plant response rating” value ([11]; 62 g ai/ha) was 40 and the “Geranium, Cutleaf plant response rating” value ([11]; 125 g ai/ha) was 60. The “Plant response rating, Johnsongrass” value ([12]; 16 g ai/ha, scale of 0 to 100) was 5, the “Plant response rating, Johnsongrass” value ([12]; 31 g ai/ha, scale 0 to 100) was 20 and the “Johnsongrass plant response rating” value ([12]; 62 g ai/ha) was 10. For the same compound, the “Johnsongrass plant response rating” value ([12]; 125 g ai/ha) was 30, the “Plant response rating, Nightshade” value ([13]; 16 g ai/ha, scale of 0 to 100) was 85 and the “Plant response rating, Nightshade” value ([13]; 31 g ai/ha, scale 0 to 100) was 80. The “Nightshade plant response rating” value ([13]; 62 g ai/ha) was 95, the “Nightshade plant response rating” value ([13]; 125 g ai/ha) was 100 and the “Plant response rating, Pigweed, Palmer” value ([14]; 16 g ai/ha, scale of 0 to 100) was 75. For the same compound, the “Plant response rating, Pigweed, Palmer” value ([14]; 31 g ai/ha, scale 0 to 100) was 80, the “Pigweed, Palmer plant response rating” value ([14]; 62 g ai/ha) was 98 and the “Pigweed, Palmer plant response rating” value ([14]; 125 g ai/ha) was 98. The “Plant response rating, Speedwell” value ([15]; 16 g ai/ha, scale of 0 to 100) was 75, the “Plant response rating, Speedwell” value ([15]; 31 g ai/ha, scale 0 to 100) was 85 and the “Speedwell plant response rating” value ([15]; 62 g ai/ha) was 95. The “Speedwell plant response rating” value ([15]; 125 g ai/ha) was 95, the “Plant response rating, Surinam Grass” value ([16]; 16 g ai/ha, scale of 0 to 100) was 20 and the “Plant response rating, Surinam Grass” value ([16]; 31 g ai/ha, scale 0 to 100) was 20. The “Surinam Grass plant response rating” value [16, 20] was 25, the “Plant response rating, Mustard, Wild” value ([17]; 16 g ai/ha, scale of 0 to 100) was 95 and the “Plant response rating, Mustard, Wild” value ([17]; 31 g ai/ha, scale 0 to 100) was 95. For the same compound, the “Mustard, Wild plant response rating” value ([17]; 62 g ai/ha) was 100, the “Mustard, Wild plant response rating” value ([17]; 125 g ai/ha) was 100 and the “Plant response rating, Poinsettia, Wild” value ([18]; 16 g ai/ha, scale of 0 to 100) was 40. For the same compound, the “Plant response rating, Poinsettia, Wild” value ([18]; 31 g ai/ha, scale 0 to 100) was 65, the “Poinsettia, Wild plant response rating” value ([18]; 62 g ai/ha) was 85 and the “Poinsettia, Wild plant response rating” value ([18]; 125 g ai/ha) was 75. For the same compound, the “Plant response rating, Windgrass” value ([19]; 16 g ai/ha, scale of 0 to 100) was 10, the “Plant response rating, Windgrass” value ([19]; 31 g ai/ha, scale 0 to 100) was 35 and the “Windgrass plant response rating” value [19, 20] was 35.
